{"source": "patent US20210292710A1", "about": "“METHOD FOR ENHANCING IMMUNE FUNCTION OF IMMUNE CELL AND IMMUNE CELL LINE PRODUCED USING THE SAME” (INDUSTRY-ACADEMIC COOPERATION FOUNDATION, YONSEI UNIVERSITY, priority 2020, published 2021)", "key": {"[1]": {"test_system": "lung-cancer cell line KLN205", "experiment": "Percentage of immune cells relative to lung-cancer cell line KLN205", "assay_type": "in vivo", "text": "Referring to FIG. 10B, the percentage of immune cells relative to the lung-cancer cell line KLN205 due to PI3K inhibitor treatment is shown. Referring first to FIG. 10B (a), the percentage of CD3+ CD8+ T cells relative to the lung-cancer cell line KLN205 due to PI3K inhibitor treatment is shown. Next, referring to (b) of FIG. 10B, the percentage of CD3+ CD4+ CD25+ Foxp3 T cells relative to lung-cancer cell line KLN205 due to PI3K inhibitor treatment is shown. Next, referring to (c) of FIG. 10B, the percentage of CD3+ TIL cells relative to the lung-cancer cell line KLN205 due to PI3K inhibitor treatment is shown. Next, referring to (d) of FIG. 10B, the percentage of MDSC cells relative to lung-cancer cell line KLN205 due to PI3K inhibitor treatment is shown."}, "AKT": {"test_system": "AKT", "experiment": "AKT expression in T cells due to PI3K inhibitor and mTORC1 inhibitor treatment", "assay_type": "cell-based", "details": "RAD001 as mTORC1 inhibitor, p<0.05", "text": "Furthermore, referring to FIG. 8, AKT and GLUT1 expression levels in T cells due to PI3K inhibitor and mTORC1 inhibitor treatment are shown. In this connection, RAD001 is used as a mTORC1 inhibitor. First, referring to (a) of FIG. 8, AKT expression levels in T cells due to PI3K inhibitor and mTORC1 inhibitor treatment are shown. […] This may mean that when mTORC1 is inhibited, AKT expression is reduced, and thus mTORC1 is an important signal capable of rebounding AKT expression."}, "GLUT1 [2]": {"test_system": "GLUT1", "experiment": "GLUT1 expression in T cells due to PI3K inhibitor and mTORC1 inhibitor treatment", "assay_type": "cell-based", "details": "RAD001 as mTORC1 inhibitor, p<0.05", "text": "Furthermore, referring to FIG. 8, AKT and GLUT1 expression levels in T cells due to PI3K inhibitor and mTORC1 inhibitor treatment are shown. In this connection, RAD001 is used as a mTORC1 inhibitor. Furthermore, referring to (b) of FIG. 8, the GLUT1 expression level in T cells due to PI3K inhibitor and mTORC1 inhibitor treatment is shown."}, "[3]": {"test_system": "lung-cancer cell line LLC2", "experiment": "Cancer cell killing ability of CD3+ T cells from PI3K inhibitor-treated mice, co-culture with lung-cancer cell line, annexin V/PI flow cytometry", "assay_type": "cell-based, mouse", "procedure": "First, 3 μg of a neoplasm lysate obtained from lung-cancer cell line LLC2 and 1 μg of an adjuvant LPS (lipopolysaccharide) are injected into 6 to 8 weeks old BALBc mice as an allogeneic model once a week in an intramuscular injection manner. At the same time, 50 mpk (mg/kg) of BKM-120 as a PI3K inhibitor (iPI3K) is orally administered to the mice belonging to the PI3K inhibitor-treated experimental group once a day.\nThen, lymphocytes are separated from the splenocyte of the mouse subjected to the PI3K inhibitor for a total of 3 weeks. Only CD3+ T cells are obtained using a magnetic-activated cell sorter (MACS).\nThen, the obtained CD3+ T cells are co-cultured for 24 hours together with the lung-cancer cell line from which the lysate is obtained. In this connection, a ratio between the numbers of the T cell and the lung-cancer cell line may be defined as 10 T cells: 1 lung-cancer cell line. Furthermore, the T cells and lung-cancer cell line are cultured under a normal condition, a hypoxic condition, and a low glucose condition, respectively, to identify cancer cell killing ability in poor tumor microenvironment.\nThen, the co-cultured T cells and lung-cancer cell line are subjected to flow cytometry analysis using an apoptosis kit and CD3+ antibodies.\nFirst, referring to (a) of FIG. 3A, the result of the cancer cell killing ability of the T cell under the normal condition due to the treatment of the PI3K inhibitor is shown. In this connection, the x-axis and y-axis indicate apoptosis using annexin V and PI (propidium iodine) as staining reagent, respectively."}, "[4]": {"test_system": "enzymes involved in glycolysis of T cells", "experiment": "mRNA expression of enzymes involved in T cell glycolysis", "assay_type": "cell-based, mouse", "details": "CD3+ T cells activated 72 hours with anti-CD3 and anti-CD28 beads", "procedure": "Thus, referring to FIG. 4B, the results of mRNA expression of enzymes involved in glycolysis of T cells due to PI3K inhibitor treatment are shown. In this connection, in order to identify enzymes involved in glycolysis of T cells due to PI3K inhibitor treatment, the CD3+ T cells obtained in FIG. 2 are used. Furthermore, the obtained CD3+ T cell is activated for 72 hours using anti-CD3 and anti-CD28 beads to identify mRNA expression of enzymes involved in glycolysis. In this connection, CD3 secretes cytokine as a protein immunomodulator, and CD28 inhibits apoptosis. Only CD3-activated T cells may lead to apoptosis. Therefore, both CD3 and CD28 signals are used to increase T cell function and survival."}, "GLUT1 [5]": {"test_system": "GLUT1", "experiment": "GLUT1 expression in T cell based on type of PI3K inhibitor", "text": "More specifically, referring to (a) of FIG. 12, the results of GLUT1 expression according to the type of PI3K inhibitor in the helper T cell are shown. In this connection, the PI3K inhibitor may include BKM 120 that may inhibit all subtypes, CAL-101 that may inhibit only p110δ, IPI-145 capable of inhibiting p110γ and P110δ, BYLT719 capable of inhibiting only p110α, and TGX-211 capable of inhibiting only p110β.\nReferring to (b) of FIG. 12, the results of GLUT1 expression according to the type of PI3K inhibitor in cytotoxic T cells are shown."}, "[6]": {"details": "hypoxic condition, 50 mpk BKM-120, 3 weeks, 24 hours co-culture"}, "[7]": {"details": "low glucose condition, 50 mpk BKM-120, 3 weeks, 24 hours co-culture"}, "[8]": {"details": "normal condition, 50 mpk BKM-120, 3 weeks, 24 hours co-culture"}}, "data": [{"compound": "Nc1cc(C(F)(F)F)c(-c2cc(N3CCOCC3)nc(N3CCOCC3)n2)cn1", "note": "[BKM 120, buparlisib]", "values": [{"measurement": "average percentage of CD3+ CD4+ CD25+ Foxp3 T cells", "setting": "[1]; 35 mpk", "value": 17, "unit": "%"}, {"measurement": "average percentage of CD3+ CD8+ T cells", "setting": "[1]; 35 mpk", "value": 39, "unit": "%"}, {"measurement": "average percentage of MDSC cells", "setting": "[1]; 35 mpk", "value": 24, "unit": "%"}, {"measurement": "distribution of the percentage of CD3+ CD4+ CD25+ Foxp3 T cells", "setting": "[1]; 35 mpk", "value": "13 to 24", "unit": "%"}, {"measurement": "distribution of the percentage of CD3+ CD8+ T cells", "setting": "[1]; 35 mpk", "value": "35 to 49", "unit": "%"}, {"measurement": "distribution of the percentage of MDSC cells", "setting": "[1]; 35 mpk", "value": "23 to 25", "unit": "%"}, {"measurement": "percentage of CD3+ TIL cells on average", "setting": "[1]; 35 mpk", "value": 5, "unit": "%"}, {"measurement": "average percentage of CD3+ CD4+ CD25+ Foxp3 T cells", "setting": "[1]; 50 mpk", "value": 15, "unit": "%"}, {"measurement": "average percentage of CD3+ CD8+ T cells", "setting": "[1]; 50 mpk", "value": 41, "unit": "%"}, {"measurement": "average percentage of MDSC cells", "setting": "[1]; 50 mpk", "value": 18, "unit": "%"}, {"measurement": "distribution of the percentage of CD3+ CD4+ CD25+ Foxp3 T cells", "setting": "[1]; 50 mpk", "value": "12 to 17", "unit": "%"}, {"measurement": "distribution of the percentage of CD3+ CD8+ T cells", "setting": "[1]; 50 mpk", "value": "32 to 50", "unit": "%"}, {"measurement": "distribution of the percentage of MDSC cells", "setting": "[1]; 50 mpk", "value": "17 to 19", "unit": "%"}, {"measurement": "percentage of CD3+ TIL cells on average", "setting": "[1]; 50 mpk", "value": 6, "unit": "%"}, {"measurement": "AKT expression in iPI3K+/imTOR− group relative to iPI3K−/imTOR−, iPI3K−/imTOR+ and iPI3K+/imTOR+ groups", "setting": "AKT", "value": "1.5 to 2.3", "unit": "times"}, {"measurement": "GLUT1 expression in iPI3K+/imTOR− group relative to iPI3K−/imTOR−, iPI3K−/imTOR+ and iPI3K+/imTOR+ groups", "setting": "GLUT1 [2]", "value": "6 to 7", "unit": "times"}, {"measurement": "first quadrant (stained by both annexin V and PI, complete death of the cancer cell)", "setting": "[3]; [6]", "value": 47.4, "unit": "%"}, {"measurement": "fourth quadrant (annexin V / PI)", "setting": "[3]; [6]", "value": 7.36, "unit": "%"}, {"measurement": "second quadrant (annexin V / PI)", "setting": "[3]; [6]", "value": 26.7, "unit": "%"}, {"measurement": "third quadrant (annexin V / PI)", "setting": "[3]; [6]", "value": 18.5, "unit": "%"}, {"measurement": "first quadrant (stained by both annexin V and PI, complete death of the cancer cell)", "setting": "[3]; [7]", "value": 36.1, "unit": "%"}, {"measurement": "fourth quadrant (annexin V / PI)", "setting": "[3]; [7]", "value": 3.71, "unit": "%"}, {"measurement": "second quadrant (annexin V / PI)", "setting": "[3]; [7]", "value": 47.2, "unit": "%"}, {"measurement": "third quadrant (annexin V / PI)", "setting": "[3]; [7]", "value": 13.1, "unit": "%"}, {"measurement": "fourth quadrant (annexin V / PI)", "setting": "[3]; [8]", "value": 11.5, "unit": "%"}, {"measurement": "second quadrant (annexin V / PI)", "setting": "[3]; [8]", "value": 15.5, "unit": "%"}, {"measurement": "third quadrant (annexin V / PI)", "setting": "[3]; [8]", "value": 10.2, "unit": "%"}, {"measurement": "first quadrant (stained by both annexin V and PI, complete death of the cancer cell)", "setting": "[3]; normal condition, T cells from mice given 50 mpk BKM-120 orally once a day for 3 weeks, 10 T cells:1 LLC2, 24 hours", "value": 62.8, "unit": "%"}, {"measurement": "mRNA expression of each glycolysis enzyme versus spleen T cells and CD3+CD28-stimulated T cells", "setting": "[4]", "value": "higher"}, {"measurement": "GLUT1 expression level versus BYLT719 and TGX-211 inhibitors", "setting": "GLUT1 [5]; cytotoxic T cells", "value": "higher GLUT1 expression levels"}, {"measurement": "GLUT1 expression level versus BYLT719 and TGX-211 inhibitors", "setting": "GLUT1 [5]; helper T cell", "value": "higher GLUT1 expression levels"}]}]}
